The test has as its system CXCR4 dependent pseudotyped virus (NL4-3). Kind of test: Single cycle HIV infection assay, pseudotyped luciferase reporter virus, time of addition. The settings on record: for inhibition of pseudotyped virus expression: all time points of addition, 0.2 μM; for activity at 0.2 µM: read-out: viral infection level, % of control levels.

The record followed here is patent US7037645B2, “Methods for identification of CDS8+ suppressor molecules” (priority 2000, dated 2006).

Read-outs that look alike come from different tables or passages of the source.

In the case of `Cc1c(O)cccc1C(=O)N[C@@H](CSc1ccccc1)[C@H](O)CN1C[C@H]2CCCC[C@H]2C[C@H]1C(=O)NC(C)(C)C` [nelfinavir], the “inhibition of pseudotyped virus expression” value was “ineffectual”. For the same molecule, for the setting “listed as protease inhibitor”, the “inhibition of pseudotyped virus expression” value was “does not, therefore, inhibit”.

Regarding `Cc1ccnc2c1NC(=O)c1cccnc1N2C1CC1` [nevirapine], the activity at 0.2 µM turned out to be 67% (Human immunodeficiency virus 1, NL43, 10 h) and 85% (Human immunodeficiency virus 1, NL43, 14 h). For the same molecule, the “time post virus exposure within which addition suppresses pseudotyped virus replication” value (time of addition, DP178 20 μg/ml, mAb#19 20 μg/ml, nevirapine 0.2 μM, Tat inhibitor 50 μM) is “approximately 10 hours”.
